Columns and labels:
[1] = test system: French beans (Phaseolus vulgaris) of the variety Fulvio; assay: Bean assay: elongation of the petiole of the second leaf; assay type: in vivo; conditions: five micro litres of test compound pipetted to the wound at the base of the second internode; measured fourteen days after application
Method: (§1) Two bioassays were developed in order to assay the activity of the compounds of the present invention. In the first assay, the activity of the compound was quantified in beans based on its effect on the elongation of the petiole of the second leaf. In the second assay, the compound's effect on the root growth of wheat was determined.
French beans (Phaseolus vulgaris) of the variety Fulvio were sown in 0.5 litres pots in a sandy loam without additional fertilizer. Plants grew under greenhouse conditions at 22/18°C (day/night) and 80% relative humility; light was supplemented […] 25 kLux. Plants were treated with test compounds eleven days after sowing, when the second internode was 2-5 mm long. Before application, the compounds were each dissolved in dimethyl sulfoxide and diluted in a mixture of lanolin-oil and acetone (1:2 ratio by volume). Five micro litres of the test compound was pipetted to the wound that was created after abscising the bract leaf from the base of the second internode. Fourteen days after application, the length of the petiole of the second leaf (measured from the base of the petiole to the base of the first leaflet) was determined in order to quantify the activity of the compounds.

[2] = target: T1, Arabidopsis BIN2 kinase (Uniprot Q39011) (Arabidopsis thaliana, UniProt Q39011); assay: In vitro assay for inhibition of plant GSK3/Shaggy-like kinase activity (ADP-Glo); assay type: biochemical; conditions: compounds at 5 µM; 5 µM ATP; myelin basic protein substrate; 1 h at 20°C; triplicate; read-out: inhibited the activity of His6-BIN2 relative to the solvent vehicle control
T1 construct: made in house; host or cells: E. coli BL21
T1 sequence (Q39011 1-380): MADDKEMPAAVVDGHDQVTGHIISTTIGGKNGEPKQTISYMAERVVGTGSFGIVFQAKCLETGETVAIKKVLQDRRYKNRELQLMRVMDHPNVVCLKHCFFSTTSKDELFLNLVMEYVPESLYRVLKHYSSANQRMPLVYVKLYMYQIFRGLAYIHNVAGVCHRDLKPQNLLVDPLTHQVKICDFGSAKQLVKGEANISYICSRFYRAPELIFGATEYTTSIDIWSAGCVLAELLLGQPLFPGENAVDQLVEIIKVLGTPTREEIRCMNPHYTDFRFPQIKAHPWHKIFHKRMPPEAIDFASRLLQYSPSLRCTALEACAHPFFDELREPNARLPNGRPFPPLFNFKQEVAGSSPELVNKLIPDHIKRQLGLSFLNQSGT
Method: Arabidopsis BIN2 kinase (Uniprot Q39011) was produced in E.coli BL21 as an N-terminal hexahistidine fusion protein. In vitro kinase assays were performed by incubating 50 ng His6-BIN2 protein with 5 µg myelin basic protein (Sigma-Aldrich) as substrate and 5 µM ATP as co-substrate in reaction buffer consisting of 40 mM Tris-HCl, 20 mM MgCl2 and 0.1mg/mL bovine serum albumin in a final reaction volume of 50 µl. Enzyme activity was assessed in the absence and presence of compounds (described in Tables A and B) at 5 µM by measuring the level of ADP produced after incubation for 1 h at 20°C using an enzyme-coupled bioluminescent assay (ADP-Glo, Promega Corp.). The experiment was performed in triplicate.

[3] = test system: Wheat (Triticum aestivum) seeds of the variety Arina; assay: Wheat assay: plant (root and shoot) area and curliness of the roots; assay type: in vivo; conditions: seeds sown in pouches with compound solution; twelve days after sowing/application
Method: as §1
The test compounds were dissolved in small volumes of dimethyl sulfoxide and diluted to the appropriate concentration with water. Wheat (Triticum aestivum) seeds of the variety Arina were sown in pouches (14.7 × 13.2 cm) containing 10 mL of the appropriate compound solution. The pouches were stored at 17 °C for three days to enable the seeds to germinate. Plants were then stored at 5°C. Twelve days after sowing/application, plants were removed from the pouches and scanned. The effect of the compounds was quantified by determining plant (root and shoot) area and curliness of the roots (curliness is an indicator of brassinosteroid-type activity).

SMILES | increase of the length of the petiole of the second leaf [1] [%] | inhibition at 5 µM [2] [%] | curliness of the roots (indicator of brassinosteroid-type activity) [3] | reduction of the plant (root and shoot) area [3] [%]
COC(=O)CCC(=O)Nc1cc(Cl)ccn1 [Compound A1, methyl 4-[(4-chloro-2-pyridyl)amino]-4-oxo-butanoate] | ≥ 10 | ≥ 20 | – | –
COC(=O)CCC(=O)Nc1cc(C(F)(F)F)ccn1 [Compound A2] | – | ≥ 20 | – | –
COC(=O)CCC(=O)Nc1cc(C#N)ccn1 [Compound A3, methyl 4-[(4-cyano-2-pyridyl)amino]-4-oxo-butanoate] | – | ≥ 20 | – | –
COC(=O)CCC(=O)Nc1cc([N+](=O)[O-])ccn1 [Compound A5] | – | ≥ 20 | – | –
COC(=O)CCC(=O)Nc1cc(I)ccn1 [Compound A6] | – | ≥ 20 | – | –
N#Cc1ccnc(NC(=O)CCC(=O)O)c1 [Compound A7, 4-[(4-cyano-2-pyridyl)amino]-4-oxo-butanoic acid] | – | ≥ 20 | – | –
O=C(O)CCC(=O)Nc1cc(C(F)(F)F)ccn1 [Compound A8] | – | ≥ 20 | – | –
COC(=O)CCC(=O)Nc1cc(Br)ccn1 [Compound A9] | – | ≥ 20 | – | –
O=C1CCC(=O)N1c1cc(C(F)(F)F)ccn1 [Compound B1, 1-[4-(trifluoromethyl)-2-pyridyl]pyrrolidine-2,5-dione] | ≥ 10 | ≥ 20 | curly root phenotype | ≥ 5
